# Laboratory results published in patent US20200038314A1, “PROCESS FOR PREVENTING OR SLOWING THE APPEARANCE OF UNATTRACTIVE SIGNS, GENERATED BY POLLUTANTS PRESENT IN THE ATMOSPHERE, ON THE SKIN, THE SCALP, THE HAIR OR THE MUCOUS MEMBRANES” (SOCIETE D'EXPLOITATION DE PRODUITS POUR LES INDUSTRIES …, priority 2016, published 2020).
# Columns and labels:
# Format in all cases: cell-based
# Human keratinocytes [1] = assay: protein assay by the BCA method on cadmium-exposed keratinocyte culture; details: product 24 h then cadmium 35 μM 24 h, sulforaphane at 1 μM, Extract A at 0.5%
# Experimental: (§1) Principle of the evaluation: evaluation of the effects of an exposure to cadmium on a keratinocyte culture.
# (§2) Protocol: Human keratinocytes are cultured in a 96-well culture plate. After a few days of culture, the products evaluated, namely the Extract A at 0.5% by weight and sulforaphane (a positive reference known to those skilled in the art), are applied in the culture medium. At the end of incubation for 24 hours, the cells are exposed to a solution of cadmium at 35 μM for 24 hours, then 24 hours later, the following various evaluations are carried out: • evaluation of the cell viability by means of a DNA assay by the Hoechst method • evaluation of the cell metabolism by means of a protein assay by the BCA method; • evaluation of the inflammatory component by means of an assay for the cytokines IL-1a and IL-8.
# cytokine IL-1α = assay: assay for the cytokine IL-1α in cadmium-exposed keratinocyte culture; details: human keratinocytes, product 24 h then cadmium 35 μM 24 h; sulforaphane at 1 μM, Extract A at 0.5%
# Experimental: as §1, §2
# Human keratinocytes [2] = assay: DNA assay by the Hoechst method on cadmium-exposed keratinocyte culture; details: product 24 h then cadmium 35 μM 24 h, sulforaphane at 1 μM, Extract A at 0.5%
# Experimental: as §1, §2
# cytokine IL-8 = assay: assay for the cytokine IL-8 in cadmium-exposed keratinocyte culture; details: human keratinocytes, product 24 h then cadmium 35 μM 24 h; sulforaphane at 1 μM, Extract A at 0.5%
# Experimental: as §1, §2
smiles,measurement,setting,value
C[S+]([O-])CCCCN=C=S (stereo not shown) [sulforaphane],Mean values of the expressed proteins,Human keratinocytes [1],156.7 µg/mL
same,Mean values of IL-1α expressed,cytokine IL-1α,0.8238 pg/μg of proteins
same,Mean values of the expressed DNA,Human keratinocytes [2],6.7 µg/mL
same,Mean values of IL-8 expressed,cytokine IL-8,3.7081 pg/μg of proteins
